Reference: patent US20030181659A1, “Thrombopoietin receptor modulating peptide” (priority 2000, published 2003)
Like-named read-outs stand apart in the source and are kept apart here. Values belong to the compound of their own block, whether it stands above or below them. Where a SMILES comes first, the peptide text is derived from it.

Experiments:
[1] = tested on: carboplatin treated mice; type: in vivo; settings: for effects on other blood components: mouse, in vivo
Text: The model used for the in vivo experiments was reported previously (Akahori et al. (1996) Stem Cells 14:678-689, Akahori et al. (1996) Br. J. Haematol. 94:722-728, Shibuya et al. (1998) Blood 91:37-45, Andrews et al. (1996) Stem Cells 14:661-677). Improvements and modifications that were introduced are indicated below.
Each test group (PBS, TPO, or TPO-Rp) was given as a single daily dose administered by intraperitoneal injection. Daily doses were begun on day 0 and continued throughout the duration of the experimental period (day 10). Two i.p. injections of carboplatin 90 mg/kg each (PBS for group 11) were given on days 0 and 4.
(§1) Blood collections were taken on days −0 (basal), 8, 11, 14, and 18. Blood was obtained by sampling from the tail of mice (8 week old male C57BL/6Y mice), followed by cauterisation. A volume of 80 μl of blood from each mouse was collected into a heparinized blood collection tube. The 80 μl of blood was then mixed with 160 μl of saline containing sufficient EDTA (0.225%) to provide for anticoagulation.
[…] Carboplatin is used to induce thrombocytopenia. In order to work with a model that is as similar as possible to clinical situations, a previously reported carboplatin model (Akahori et al. (1996) Stem Cells 14:678-689, Akahori et al. (1996) Br. J. Haematol. 94:722-728, Shibuya et al. (1998) Blood 91:37-45, Andrews et al. (1996) Stem Cells 14:661-677) has been carefully studied and modified accordingly. Additionally, a method for animal bleeds has been carefully studied, in order to work with animals that show the highest response to a given drug and which are at the same time under a minimum of stress (see Methods above). Thus, the dose of carboplatin has been increased to 180 mg/kg and was given by two intraperitoneal (i.p) injections on day 0 (half-dose) and day 4 (second half-dose). Carboplatin induced severe thrombocytopenia on day eight.

[2] = target: T1, TPO-R (Homo sapiens, UniProt P40238); assay: In vitro signalling assay, dose response (STAT5 phosphorylation); type: cell-based; settings: dose response 0.3 nM to 30 μM
T1 construct: endogenous in cells; host or cells: TF-1 cells
T1 sequence (P40238 26-635): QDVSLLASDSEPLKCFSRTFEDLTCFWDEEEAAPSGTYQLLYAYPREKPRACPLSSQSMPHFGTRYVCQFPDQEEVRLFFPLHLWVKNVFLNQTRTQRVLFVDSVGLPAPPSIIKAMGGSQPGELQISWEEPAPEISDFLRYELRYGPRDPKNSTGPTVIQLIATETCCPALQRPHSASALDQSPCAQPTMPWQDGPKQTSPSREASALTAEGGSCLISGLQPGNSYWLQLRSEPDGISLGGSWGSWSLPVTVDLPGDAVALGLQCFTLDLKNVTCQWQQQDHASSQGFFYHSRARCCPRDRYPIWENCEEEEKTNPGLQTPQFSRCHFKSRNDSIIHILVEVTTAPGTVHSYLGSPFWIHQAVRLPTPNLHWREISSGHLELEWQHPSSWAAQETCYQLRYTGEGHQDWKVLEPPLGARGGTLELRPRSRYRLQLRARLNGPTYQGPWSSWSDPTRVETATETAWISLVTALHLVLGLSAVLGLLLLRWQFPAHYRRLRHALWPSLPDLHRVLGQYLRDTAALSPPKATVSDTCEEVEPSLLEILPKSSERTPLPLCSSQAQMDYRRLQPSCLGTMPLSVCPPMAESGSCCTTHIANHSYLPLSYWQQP
Protocol: (§2) Treatment of the cells: TF-1 cells were grown to an approximate density of 1×10^6 cells in RPMI 1640 media with 1× Penicillin/Streptomycin, 2 mM glutamin, 10% fetal bovine serum (Hyclone) and 1 ng/ml GM-CSF, centrifuged down and resuspended in media with 3% serum and no GM-CSF. The cells were starved for 14-18 hours at 37° C. (5% CO2), spun down and resuspended at a density of 1×10^6 cells/ml in a medium without serum and GM-CSF. 2 ml of cell suspension was treated with the oligopeptide or TPO (as indicated per experiment) at 37° C. for 30 min. (5% CO2). 10 ml of ice-cold cell wash buffer was added per Falcon tube and centrifuged down quickly at 4° C. and 3000 rpm,. The medium was carefully aspirated and the wash repeated twice with PBS.
The following steps were performed on ice. The medium was aspirated and 0.6 ml of 2× lysis buffer per tube was added. This was pipetted up and down and transferred to Eppendorf tubes, placed on ice for circa 30 min., and centrifuged at 14,000×g for 10 min. The supernatant (lysate) was used in immunoprecipitations.
Immunoprecipitations: 20-40 μL of GammaBind G Sepharose slurry was used per immunoprecipitation. The protein G beads were washed several times with 0.5× lysis buffer in Eppendorf tubes and 1-4 μg of PY-99 antibody (Santa Cruz-Biotechnology) was added per immunoprecipitation. The tubes were incubated with end-over-end rotation for 2 h at room temperature. The lysate was added and the tubes further incubated with end-over-end rotation overnight at 4° C. The beads were washed 3 times with 1× lysis buffer and once with 0.5 M Tris pH 6.5. 50 μl of SDS-sample buffer was added and the samples were boiled for 3 min prior to being applied to the gels.
Western blot analysis: about 10 μl/sample was run on a 8% Polyacrylamide mini gel, transferred to PVDF membrane (Millipore), blocked for 1 h in blocking buffer and incubated with αSTAT5 antibody (Santa Cruz-Biotechnology) overnight at 4° C. in an 1:1000 dilution. The membrane was washed, incubated with appropriate alkaline phosphatase conjugated secondary antibody, 1:2000 dilution at room temperature for 2 h. The PVDF-membrane was washed with Blotto and developed with NBT/BCIP (Cappel).
Dose-response curves of the present oligopeptides were performed and their activity was compared to the wild type TPO-Rp.
Peptide dose response activity was evaluated primarily by in vitro signalling assays. Phosphorylation and thus activation of STAT5, a substrate of JAK2 kinase that is activated by TPO-Rp signal transduction, was measured. Each oligopeptide activity was addressed through a broad range of concentrations. Peptides were tested at concentrations of 0.3, 3, 10, 30 nM and 0.1, 0.3, 3 and 30 μM TPO-Rp. Oligopeptide activity as a measurement of STAT5 phosphorylation in each experiment was compared to activity obtained with 10 ng/ml of TPO, a hormone concentration that gives a maximal activation and signalling through TPO-R. All the peptides were evaluated four to five times in independent experiments. All the data was collected, Western blots were scanned and the intensity of the STAT5 phosphorylation was quantified.
The activity of each oligopeptide was addressed as percent of its maximum activity; thus 100% activity was assigned to the value of STAT5 protein phosphorylation obtained with 30 μM oligopeptide concentration.

[3] = target: T1, TPO-R; assay: In vitro signalling assay (STAT5 phosphorylation in TF-1 cells) of stored peptide samples; type: cell-based; settings: day 30, solution in water stored at −20° C.
Protocol: as §2
The following steps were performed on ice. The medium was aspirated and 0.6 ml of 2× lysis buffer per tube was added. […]
The activity of the oligopeptides of the present invention and wild type TPO-Rp was examined by in vitro signalling assays. […] Phosphorylation and thus activation of STATS, a substrate of JAK2 kinase that is activated by TPO-R signal transduction, was measured. […] All the peptides were evaluated three to four times in independent experiments. All the data were collected, Western blots were scanned, and intensity of the STAT5 phosphorylation was quantified.

[4] = tested on: carboplatin treated mice; assay: Carboplatin (200 mg/kg) induced thrombocytopenia in mice; type: in vivo; settings: for platelet number: carboplatin 200 mg/kg
Protocol: Each test group was given a single daily dose administered by intraperitoneal injection. Daily doses were begun on day 0 and continued throughout the duration of the experimental period (day 13). Minimal doses were given on indicated days: 0 and 4; 0, 4 and 8; 0, 4, 8 and 12; days 8 through 14. Two i.p. injections of carboplatin 100 mg/kg were given on days 0 and 4.
as §1, with “days 0” for “days −0”, “11, 14” for “11, 14,”, “18. Blodd” for “18. Blood”, “the tails” for “the tail”, “male C57BL/6J mice)” for “male C57BL/6Y mice),”
The dose of carboplatin has been increased to 200 mg/kg and was given as a cumulative dose by two intraperitoneal (i.p.) injections on day 0 (half-dose) and day 4 (second half-dose). Carboplatin induced severe thrombocytopenia on day eleven.

[5] = target: thrombopoietin receptor (TPO-R) on TF-1 cells (UniProt P40238); assay: cell-based or functional assay

effects on other blood components [1]: None of the peptides used
Compound: CC(C)C[C@H](NC(=O)[C@H](CCC(N)=O)NC(=O)[C@H](CC(C)C)NC(=O)[C@H](CCCNC(=N)N)NC(=O)[C@H](Cc1ccc(O)cc1)NC(=O)[C@H](CCCNC(=N)N)NC(=O)[C@H](CO)NC(=O)[C@H](C)NC(=O)[C@@H]1CCCN1C(=O)[C@H](C)NC(=O)[C@H](CC(C)C)NC(=O)[C@H](CCC(=O)O)NC(=O)[C@H](CC(C)C)NC(=O)[C@@H](NC(=O)CN)[C@@H](C)O)C(=O)O [SEQ ID No. 4] (H-GTLELAPASRYRLQL-OH; N-terminus and C-terminus assumed)
effect on platelet levels / thrombocytopenia ([1]; dose not given, carboplatin 180 mg/kg): some effect on platelet levels | activity compared to wild type TPO-Rp (STAT5 phosphorylation) [2]: retained activity comparable to wild type TPO-Rp

activity compared to wild type TPO-Rp (STAT5 phosphorylation) [2]: activity identical to wild type TPO-Rp
Compound: SEQ ID No. 5: oligopeptide G4-R21 of wild type TPO-Rp (GTLELRPRSRYRLQLRAR; listed as Homo sapiens)

activity compared to wild type TPO-Rp (STAT5 phosphorylation) [2]: activity identical to wild type TPO-Rp
Compound: SEQ ID No. 6: oligopeptide G4-R21 of wild type TPO-Rp, R9A, R11A form (GTLELAPASRYRLQLRAR; listed as Homo sapiens)

STAT5 phosphorylation in TF-1 cells; TPO concentration giving maximal activation [5]: 10 ng/mL
Compound: thrombopoietin (TPO) (from UniProt P40225 22-353) (ligand)

The remaining lines, values behind:

Compound: CC(C)C[C@H](NC(=O)[C@H](CCCNC(=N)N)NC(=O)[C@H](C)NC(=O)[C@H](CCCNC(=N)N)NC(=O)[C@H](CC(C)C)NC(=O)[C@H](CCC(N)=O)NC(=O)[C@H](CC(C)C)NC(=O)[C@H](CCCNC(=N)N)NC(=O)[C@H](Cc1ccc(O)cc1)NC(=O)[C@H](CCCNC(=N)N)NC(=O)[C@H](CO)NC(=O)[C@H](CCCNC(=N)N)NC(=O)[C@@H]1CCCN1C(=O)[C@H](CCCNC(=N)N)NC(=O)[C@H](CC(C)C)NC(=O)[C@H](CCC(=O)O)NC(=O)[C@H](CC(C)C)NC(=O)[C@@H](NC(=O)CNC(=O)CNC(=O)[C@H](CCCNC(=N)N)NC(=O)[C@H](C)N)[C@@H](C)O)C(=O)N[C@@H](CC(N)=O)C(=O)O [TPO-Rp wild type, ARGGTLELRPRSRYRLQLRARLN] (H-ARGGTLELRPRSRYRLQLRARLN-OH; N-terminus and C-terminus assumed)
platelet (thrombocyte) number, percent change from basal ([1]; 30 μg/kg/day i.p. daily from day 0, carboplatin 180 mg/kg): significantly increased the thrombocyte number | platelet (thrombocyte) number, percent change from basal ([1]; 300 μg/kg/day i.p. daily from day 0, carboplatin 180 mg/kg): significantly increased the thrombocyte number | survival rate of treated animals ([1]; CHI-square analysis, carboplatin 180 mg/kg): statistically significant survival rate | effects on other blood components [1]: None of the peptides used | activity (STAT5 phosphorylation) after storage [3]: significant decrease in activity

Compound: SEQ ID No. 1: oligopeptide A1-L18 of wild type TPO-Rp, 18 amino acids, without R9A, R11A substitutions (ARGGTLELRPRSRYRLQL; listed as Homo sapiens)
activity compared to wild type TPO-Rp (STAT5 phosphorylation) [2]: activity comparable to the wild type TPO-Rp

Compound: SEQ ID No. 3: shortest oligopeptide, 15 amino acids long, G4-L18 of wild type TPO-Rp (GTLELRPRSRYRLQL; listed as Homo sapiens)
activity compared to wild type TPO-Rp (STAT5 phosphorylation) [2]: retained activity comparable to wild type TPO-Rp

Compound: TPO: thrombopoietin, natural hormone, glycoprotein ligand of c-mpl (TPO-R)
platelet number ([4]; 2.4 μg/kg/day days 0 through 13): again unable to protect decrease in platelets | platelet number ([4]; 10 μg/kg/day days 0 through 13): some effect that does have statistical significance | effect on thrombocytopenia ([4]; 10 μg/kg/day from day 8 through 14, carboplatin from day 0): did not show a significant effect on thrombocytopenia | platelet number ([1]; 2.4 μg/kg/day i.p. daily, carboplatin 180 mg/kg): unable to prevent a decrease in platelets
